Assay results taken from PMC4847155 (Biochemical Journal, 2016).
pEC50: −log10 of the molar value. Where a name gives a salt, the structure may show the parent alone. Read-outs that look alike come from different tables or passages of the source.

What was measured:
[1] = system: Wt BMK cells; assay: Live-cell imaging of cell death; type: cell-based, mouse; details: for effect on apoptosis of Wt compared with DKO cells (annexin V staining): Wt versus DKO BMK cells, among the five compounds
[2] = system: Bax−/− Bak−/− (DKO) BMK cells; assay: Live-cell imaging of cell death; type: cell-based, mouse; details: 24 h
[3] = target: T1, Bax (Homo sapiens, UniProt Q07812); type: biochemical; details: 100 nM Bax, 10 μM compound or 20 nM cBid/Bim, no membranes, DSS
T1 sequence (Q07812 whole entry): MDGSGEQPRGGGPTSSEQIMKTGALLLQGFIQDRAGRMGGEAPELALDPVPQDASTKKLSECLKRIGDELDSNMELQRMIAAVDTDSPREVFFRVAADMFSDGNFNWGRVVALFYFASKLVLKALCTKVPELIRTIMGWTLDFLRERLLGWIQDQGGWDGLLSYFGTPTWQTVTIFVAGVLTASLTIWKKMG

[4] = target: C126A Bax (Homo sapiens, UniProt Q07812, C126A); details: mitochondria, 20 nM Bax, 10 μM compound
Chain of C126A Bax (Q07812 whole entry C126A): as the sequence (Q07812 whole entry) above, with C126A counted along it

[5] = target: T1, Bax; assay: biochemical; type: biochemical
[6] = target: T1, Bax; type: biochemical; details: 100 nM Bax, 10 μM compound, DSS
[7] = target: T1, Bax; assay: biochemical

Row | Compound | formation of dimers and higher-order Bax oligomers in solution [3] | activation of C126A Bax [4] | effect on apoptosis of Wt compared with DKO cells (annexin V staining) [1] | pEC50 [7] | pEC50 [5] | also measured
1 | O=c1c2ccccc2[se]n1-c1ccccc1 [Ebselen, ebselen] | pronounced effects | almost completely resistant | – | – | – | toxicity to cells ([1]; Wt BMK cells, 24 h): not toxic; toxicity to cells ([2]; DKO BMK cells): not toxic
2 | CC(=O)[O][Hg][c]1ccccc1 [PMA, phenylmercuric acetate] | – | – | most pronounced effects | – | – | pEC50 ([5]; read-out: EC50 in mitochondria, 20 nM Bax, mitochondria from Bax−/− Bak−/− BMK cells, Smac–mCherry release): 5.89; Bax oligomerization (higher-order complexes) in liposomes [6]: most pronounced effects
3 | CC1=CC(=O)c2c(O)cccc2C1=O [Plumbagin, plumbagin] | – | – | most pronounced effects | < 5.52 | 5.82 | –
4 | CC(C)N(CCC(=O)c1ccc2ccccc2c1)Cc1ccccc1 [ZM, ZM39923 hydrochloride] | – | almost completely resistant | – | < 5.52 | 5.46 | pEC50 ([1]; Mus musculus, 24 h, read-out: EC50 of cell kill): ~5.00; pEC50 ([2]; Mus musculus, read-out: EC50 of cell kill): ~5.00
5 | Bim: pro-apoptotic BH3 protein, recombinant, positive control for Bax oligomerization | no effects | – | – | – | – | –
